Measured values as given in article PMC3514216, “SRC Homology 2 Domain Binding Sites in Insulin, IGF-1 and FGF receptor mediated signaling networks reveal an extensive potential interactome” (Cell Communication and Signaling : CCS, 2012).
Numbering of substitutions follows the chain as printed. Each block holds one molecule with its values, some of them ahead of it. Residues, ends and D or L forms follow the SMILES beside them.

Assays:
Abl2 SH2 domain = target: T1, Abl2 SH2 domain (Homo sapiens, UniProt P42684); assay: SPOT peptide array; type: binding; settings: spot intensity as factor of array mean; GST-SH2 0.25 μM
T1 sequence (P42684 173-263 limits assumed): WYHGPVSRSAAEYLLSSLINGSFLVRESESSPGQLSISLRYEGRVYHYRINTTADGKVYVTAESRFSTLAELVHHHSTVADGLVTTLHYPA
How it was run: (§1)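 Membrane-bound 11-mer phosphotyrosine peptides from insulin, IGF-1 and FGF receptors, their substrates and signaling proteins were probed with GST–SH2 fusions and detected with anti-GST and near-infrared secondary antibodies. Spots >3× the membrane mean scored positive and below the mean negative. GST-only "sticky" peptides were excluded.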

Grb2 SH2 domain = Grb2 SH2 domain (Homo sapiens, UniProt P62993); assay: SPOT peptide array; type: binding; settings: spot intensity as factor of array mean; GST-SH2 0.25 μM
How it was run: as §1

Grb7 SH2 domain [1] = assay: SPOT peptide array; type: binding; settings: spot intensity as factor of array mean; GST-SH2 0.25 μM
How it was run: as §1

Src SH2 domain [2] = target: T2, Src SH2 domain (Homo sapiens, UniProt P12931); assay: SPOT peptide array; type: binding; settings: spot intensity as factor of array mean; GST-SH2 0.25 μM
How it was run: as §1

Src SH2 domain [3] = target: T2, Src SH2 domain; parameters: method as in earlier work; settings: SH2 protein microarray; N.B. = non binding; read-out: Protein Microarray (Macbeath) – KD; cited from earlier work
Grb7 SH2 domain [4] = target: Grb7 SH2 domain; parameters: method as in earlier work; settings: SH2 protein microarray; N.B. = non binding; read-out: Protein Microarray (Macbeath) – KD; cited from earlier work
Crk SH2 domain [5] = target: T3, Crk SH2 domain (Homo sapiens, UniProt P46108); assay: SPOT peptide array; type: binding; settings: spot intensity as factor of array mean; GST-SH2 0.25 μM
How it was run: as §1

Gads SH2 domain [6] = assay: SPOT peptide array; type: binding; settings: spot intensity as factor of array mean; GST-SH2 0.25 μM
How it was run: as §1

Gads SH2 domain [7] = target: Gads SH2 domain; parameters: method as in earlier work; settings: SH2 protein microarray; N.B. = non binding; read-out: Protein Microarray (Macbeath) – KD; cited from earlier work
Abl1 SH2 domain = target: T4, Abl1 SH2 domain (Homo sapiens, UniProt P00519); assay: SPOT peptide array; type: binding; settings: spot intensity as factor of array mean; GST-SH2 0.25 μM
T4 sequence (P00519 127-217 limits assumed): T1 sequence (P42684 173-263 limits assumed) with S9N, L18G, L35R, T53A, A54S, V58L, T61S, A62S, S67N, V84I
How it was run: as §1

CrkL SH2 domain [8] = target: T5, CrkL SH2 domain (Homo sapiens, UniProt P46109); assay: SPOT peptide array; type: binding; settings: spot intensity as factor of array mean; GST-SH2 0.25 μM
How it was run: as §1

Yes SH2 domain [9] = assay: SPOT peptide array; type: binding; settings: spot intensity as factor of array mean; GST-SH2 0.25 μM
How it was run: as §1

Rasa1_N SH2 domain = Rasa1_N SH2 domain (Homo sapiens, UniProt P20936); assay: SPOT peptide array; type: binding; settings: spot intensity as factor of array mean; GST-SH2 0.25 μM
Itk SH2 domain = Itk SH2 domain (Homo sapiens, UniProt Q08881); assay: SPOT peptide array; type: binding; settings: spot intensity as factor of array mean; GST-SH2 0.25 μM
Yes SH2 domain [10] = target: Yes SH2 domain; parameters: method as in earlier work; settings: SH2 protein microarray; N.B. = non binding; read-out: Protein Microarray (Macbeath) – KD; cited from earlier work
Crk SH2 domain [11] = target: T3, Crk SH2 domain; parameters: method as in earlier work; settings: N.B. = non binding; cited from earlier work
Nck1 SH2 domain = Nck1 SH2 domain (Homo sapiens, UniProt P16333); parameters: method as in earlier work; settings: N.B. = non binding; cited from earlier work
Vav1 SH2 domain = Vav1 SH2 domain (Homo sapiens, UniProt P15498); parameters: method as in earlier work; settings: N.B. = non binding; cited from earlier work
CrkL SH2 domain [12] = target: T5, CrkL SH2 domain; parameters: method as in earlier work; settings: N.B. = non binding; cited from earlier work
Plcg2_N SH2 domain = Plcg2_N SH2 domain (Homo sapiens, UniProt P16885); parameters: method as in earlier work; settings: N.B. = non binding; cited from earlier work
Plcg2_N SH2 domain, sequence (P16885 532-635 limits assumed): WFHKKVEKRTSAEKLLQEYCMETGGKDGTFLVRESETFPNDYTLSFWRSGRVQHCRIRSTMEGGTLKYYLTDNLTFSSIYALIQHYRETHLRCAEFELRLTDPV

Grb2 SH2 domain, sequence (P62993 60-152 limits assumed): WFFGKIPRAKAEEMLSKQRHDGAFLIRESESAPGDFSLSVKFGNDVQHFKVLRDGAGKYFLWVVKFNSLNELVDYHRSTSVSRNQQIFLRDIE
T3 sequence (P46108 13-118 limits assumed): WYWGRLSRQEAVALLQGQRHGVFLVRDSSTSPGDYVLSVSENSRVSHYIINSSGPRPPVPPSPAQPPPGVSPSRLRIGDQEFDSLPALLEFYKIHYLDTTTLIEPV
T5 sequence (P46109 14-102 limits assumed): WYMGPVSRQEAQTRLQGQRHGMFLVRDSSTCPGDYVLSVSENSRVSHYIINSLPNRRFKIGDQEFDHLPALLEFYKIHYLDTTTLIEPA
Rasa1_N SH2 domain, sequence (P20936 181-272 limits assumed): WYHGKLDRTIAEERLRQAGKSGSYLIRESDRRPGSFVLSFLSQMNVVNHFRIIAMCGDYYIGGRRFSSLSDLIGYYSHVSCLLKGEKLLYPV
Itk SH2 domain, sequence (Q08881 239-338 limits assumed): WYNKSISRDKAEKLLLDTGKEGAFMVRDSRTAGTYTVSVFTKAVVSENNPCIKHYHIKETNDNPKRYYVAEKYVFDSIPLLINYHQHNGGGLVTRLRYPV
Vav1 SH2 domain, sequence (P15498 671-765 limits assumed): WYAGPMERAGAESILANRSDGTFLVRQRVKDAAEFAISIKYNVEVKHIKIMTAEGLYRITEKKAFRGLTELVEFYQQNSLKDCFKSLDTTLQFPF

Peptide array intensity (X mean) (Abl2 SH2 domain): <2x X Mean
Peptide array intensity (X mean) (Grb2 SH2 domain): <2x X Mean
Peptide array intensity (X mean) (Src SH2 domain [2]): <2x X Mean
Molecule: EIFTLGGSPpYPGVPVEED
Peptide array intensity (X mean) (Grb7 SH2 domain [1]): <2x X Mean
Kd (Src SH2 domain [3]): 1790 nM
Kd (Grb7 SH2 domain [4]): 650 nM

Peptide array intensity (X mean) (Crk SH2 domain [5]): <2x X Mean
Molecule: ARDIHHIDYpYKKTTNGRD
Peptide array intensity (X mean) (Gads SH2 domain [6]): <2x X Mean
Kd (Gads SH2 domain [7]): 1010 nM

Peptide array intensity (X mean) (Abl1 SH2 domain): >3x X Mean
Peptide array intensity (X mean) (Abl2 SH2 domain): <2x X Mean
Peptide array intensity (X mean) (CrkL SH2 domain [8]): <2x X Mean
Peptide array intensity (X mean) (Grb2 SH2 domain): <2x X Mean
Peptide array intensity (X mean) (Rasa1_N SH2 domain): <2x X Mean
Peptide array intensity (X mean) (Itk SH2 domain): <2x X Mean
Molecule: QARRPPGLEpYCYNPSHND* [FGFR1 Y583 phosphopeptide; Cys replaced with Ala or Ser on peptide arrays]
Peptide array intensity (X mean) (Grb7 SH2 domain [1]): >3x X Mean
Peptide array intensity (X mean) (Yes SH2 domain [9]): <2x X Mean
Kd (Yes SH2 domain [10]): 1550 nM
Kd (Grb7 SH2 domain [4]): 1000 nM

Molecule: CSCC[C@H](NC(=O)[C@@H]1CCCN1C(=O)[C@@H](N)[C@@H](C)O)C(=O)N[C@@H](CC(C)C)C(=O)N[C@@H](C)C(=O)NCC(=O)N[C@H](C(=O)N[C@@H](CO)C(=O)N[C@@H](CCC(=O)O)C(=O)N[C@@H](Cc1ccc(OP(=O)(O)O)cc1)C(=O)N[C@@H](CCC(=O)O)C(=O)N[C@@H](CC(C)C)C(=O)N1CCC[C@H]1C(=O)N[C@@H](CCC(=O)O)C(=O)N[C@@H](CC(=O)O)C(=O)N1CCC[C@H]1C(=O)N[C@@H](CCCNC(=N)N)C(=O)N[C@@H](CC(=O)O)C(=O)O)C(C)C (HELM PEPTIDE1{T.P.M.L.A.G.V.S.E.[O=C([C@H](Cc1ccc(OP(=O)(O)O)cc1)N[*:1])[*:2]].E.L.P.E.D.P.R.D}$$$$V2.0)
Protein Microarray (Macbeath) – KD (Crk SH2 domain [11]): N.B.
Protein Microarray (Macbeath) – KD (Nck1 SH2 domain): N.B.
Protein Microarray (Macbeath) – KD (Vav1 SH2 domain): N.B.
Protein Microarray (Macbeath) – KD (CrkL SH2 domain [12]): N.B.
Protein Microarray (Macbeath) – KD (Plcg2_N SH2 domain): N.B.
